“Also recorded” adds a separate entry of the source. Like-named read-outs stand apart in the source and are kept apart here.
Legend:
[1] = test system: Human astrocytoma cells; experiment: Inflammatory cytokine ELISAs in astrocytoma cultures; format: cell-based; conditions: for IL-1 secreted in the medium / IL-6 secreted in the medium / TNF-α secreted in the medium: 24 hours
Protocol: Following exposure medium was collected from each well and levels of inflammatory cytokines ([…], TNF-α, TGF-β and […]) were determined using commercially available ELISAs.
It was reported that inflammatory response elements (cytokines) are elevated in Alzheimer's disease patients. The inventors tested the nifedipine mix and individual analogs in astrocytoma cultures. Human astrocytoma cells were plated at 2.5×10^5 cells/well in 6 well culture plates and were grown for 24 hours. […] Three 6-well plates were subjected to each treatment. Following treatment, medium was collected from each well and levels of IL-1β, IL-6, TNF-α and TGF-β were measured using commercially available ELISAs.
Using a similar procedure to that described in Example 3, NFD-L1 was tested in astrocytoma cultures.

[2] = test system: H4 neuroglioblastoma cells stably transfected to overexpress amyloid precursor protein (APP); experiment: Aβ1-42 secreted into medium by H4 cells overexpressing APP, ELISA; format: cell-based
Protocol: H4 neuroglioblastoma cells stably transfected with a construct overexpressing amyloid precursor protein (APP) secret Aβ1-42 into the culture medium. […] The Aβ levels in the culture medium were measured using ELISAs (Invitrogen).
We then tested if other calcium channel blockers can inhibit Aβ 1-42 generation in H4 neuroglioma cultures. Known calcium channel blockers such as Amilodpine, Dilitiazem, Felodipine, Isradipine, Nicardipine, and Nimodipine were used in this experiment.

[3] = target: T1, beta secretase (BACE) (Homo sapiens, UniProt P56817); experiment: BACE activity, fluorescent substrate and purified recombinant BACE (Invitrogen kit); format: biochemical
T1 construct: purchased Invitrogen
T1 sequence (P56817 46-501): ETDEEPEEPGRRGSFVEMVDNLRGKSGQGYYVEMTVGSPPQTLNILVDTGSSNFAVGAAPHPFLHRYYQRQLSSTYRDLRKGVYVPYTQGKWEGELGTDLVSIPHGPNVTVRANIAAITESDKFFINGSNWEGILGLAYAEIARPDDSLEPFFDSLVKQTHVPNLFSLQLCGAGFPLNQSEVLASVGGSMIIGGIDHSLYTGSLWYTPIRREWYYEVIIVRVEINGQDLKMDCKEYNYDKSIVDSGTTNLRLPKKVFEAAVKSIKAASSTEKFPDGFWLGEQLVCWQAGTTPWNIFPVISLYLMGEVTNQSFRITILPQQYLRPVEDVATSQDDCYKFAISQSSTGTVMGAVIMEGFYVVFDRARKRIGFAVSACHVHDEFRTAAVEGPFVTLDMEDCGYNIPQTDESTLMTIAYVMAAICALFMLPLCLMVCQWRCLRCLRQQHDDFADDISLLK
Protocol: BACE activity was measured using a fluorescent substrate and purified recombinant BACE as part of a commercial kit from Invitrogen.
Using a similar procedure as described in Example 8, NFD-L1 was tested for inhibition of BACE activity.

[4] = test system: mice; experiment: Aβ and Aβ processing proteins in mice, ELISA and Western blot; format: in vivo, mouse; conditions: IP injections (nitroso-nifedipine 35 mg/kg, 3 days)
Protocol: It is contemplated that increased ADAM-10 levels lead to increased cleavage at the alpha secretase position of APP, minimizing generation of Aβ.
The effects of NFD-L1 on levels of enzymes involved in Aβ processing in vivo were determined using a similar procedure to that described in Example 15.

[5] = test system: H4 neuroglioma cultures that overexpress APP; experiment: Levels of enzymes involved in Aβ processing in H4 cultures overexpressing APP, immunohistochemistry; format: cell-based
Protocol: Following treatment, cultures were rinsed three times in PBS and fixed in 70% methanol/30% acetone for 30 minutes at −20° C. Cultures were then subjected to immunohistochemistry for BACE, PS-1, GPCR-3, nicastrin, and ADAM (the enzyme responsible for alpha secretase cleavage). 30 to 50 cells were imaged in 4-5 fields/dish (3 dishes each treatment) (FIG. 22). […] Alpha secretase cleavage leads to decreased Aβ1-42.
Using a similar procedure as described in Example 13, H4 neuroglioma cultures were treated with NFD-L1 to determine the effects of NFD-L1 on levels of enzymes involved in Aβ processing.

[6] = mouse, in vivo
Text: (§1) Based on the in vitro data described above, the inventors initiated an acute exposure study in 3 month old C57-Black-6 (C57BL/6) mice.

[7] = test system: orphan G-coupled receptor protein 3 (GPCR-3); conditions: H4 cells, 1 μM (0.5 μM T3/0.5 μM T4), 16 hours
Protocol: Levels of GPCR-3 were measured using Western blot analysis using a GPCR-3 specific antibody.

[8] = test system: orphan G-coupled receptor protein 3 (GPCR-3); conditions: mice of Example 10
Protocol: as §1
In addition, GPCR-3 levels were determined in the C57BL/6 mice described above in Example 10 using Western blot analysis.

[9] = test system: C57/B16 mice; experiment: EAAT2 in tissue of treated mice, Western blot; format: in vivo, mouse; conditions: 25 mg/kg, 3 days
[10] = test system: PDS/TTR complex; experiment: PDS/TTR complex expressed into culture medium by choroid plexus epithelial cells, Western blot; format: cell-based, human; conditions: control epithelial cells, 5 μM acrolein, 72 hours
Protocol: For these experiments, primary cultures of choroid plexus epithelial cells were established from short post mortem interval autopsies using established methods. AD and normal control cultures were grown to confluence in MEM growth medium containing 2% fetal bovine serum and 1% epithelial growth factor (EGF). Normal control cultures were switched to Opti-MEM containing N2 supplement and were treated with vehicle (controls) or with 5 μM acrolein for 72 hours. […] After treatment, medium was collected from each flask and was desalted using PD-10 columns. The eluted proteins were then freeze-dried, resuspended in 25 μl water and analyzed using Western blot analysis and antibodies specific to PDS and TTR.
The amount of PDS/TTR secreted into the culture medium by each culture was determined by Western blot analysis as described above.

[11] = test system: PDS/TTR complex; experiment: PDS/TTR-positive epithelial cells by immunostaining; format: cell-based, human; conditions: acrolein alone
Text: In addition, immunostaining was used to determine the PDS/TTR-positive cells and the numbers of PDS/TTR-positive cells from treated and untreated cell cultures were counted and compared.

[12] = test system: C57/B16 mice; experiment: Brain Aβ1-40 in mice given nitroso-nifedipine IP, Covance ELISA; format: in vivo, mouse; conditions: 35 mg/kg IP, 3 days
Protocol: The animals were sacrificed 15 minutes following the final injection. Brains were quickly removed, split into hemispheres, and snap frozen in liquid nitrogen. Brains were shipped on dry ice and maintained at −80° C. until used for analysis. One hemisphere of each brain was homogenized in diethylamine (200 mg wet weight/mL) containing complete protease inhibitors using a Dounce homogenizer. Homogenate was centrifuged at 16,000×g for 30 minutes and 50 μL soluble protein subjected to Aβ1-40 quantification using a Covance ELISA per manufacturer's instructions. Results are expressed as % vehicle treated animals.

[13] = test system: H4 neuroglioma cultures; experiment: Survival of H4 cells, MTT reduction; format: cell-based; conditions: increasing concentrations, 16 hours
Protocol: Specifically, H4 neuroglioma cultures were plated at a density of 2.5×10^5 cells/well and allowed to attach overnight. […] Following treatment, MTT was added at a final concentration of 0.5 mg/mL and cultures incubated for 30 minutes. Following MTT treatment, medium was removed and the formazan crystals generated by mitochondrial conversion of MTT were dissolved in DMSO and absorbance was measured at 650 nm. Data are reported as mean±SEM % control MTT reduction (FIG. 21).

[14] = Liver toxicity study: serum alkaline phosphatase in mice; format: in vivo, mouse
[15] = test system: H4 neuroglioma cultures; experiment: Calcium influx after KCl depolarization in H4 cultures, Fluo-4 AM confocal microscopy; format: cell-based; conditions: 1 μM nifedipine or […] nitroso-nifedipine, 1 hour
Protocol: Cells were depolarized by addition of 40 μL 100 mM KCl and calcium levels quantified 30 seconds following depolarization by confocal microscopy (n=75-100 cells/dish for 3 dishes/treatment).

Row | SMILES | IL-1 secreted in the medium [1] | IL-6 secreted in the medium [1] | TNF-α secreted in the medium [1] | BACE activity ([3]; agent alone) | ADAM-10 level [4] | Aβ1-40 level [4] | cleaved Notch-1 level [4] | presenilin-1 level [4] | ADAM-10 level [5] | BACE protein level [5] | PS-1 level [5] | nicastrin (NCT) level [5] | BACE activity ([3]; in combination with thyroxine) | also measured
1 | COC(=O)c1c(C)nc(C)c2c(=O)[nH]c3ccccc3c12 [NFD-L1] | significantly reduced | significantly reduced | significantly reduced | significantly inhibits | significant increase | significant decrease | significant increase | significant decrease | significant increase | significant decrease | significant decrease | significant decrease | – | inflammatory cytokine production [1]: inhibited; Aβ 1-42 generation ([2]; procedure similar to Example 6): inhibited
2 | COC(=O)c1c(C)nc(C)c(C(=O)OC)c1-c1ccccc1[N+](=O)[O-] [oxidized nifedipine, 2,6-dimethyl-4-(2-nitrophenyl)-3,5-pyridinedicarboxylic acid dimethyl ester] | significantly reduced | significantly reduced | significantly reduced | – | – | – | – | – | – | – | – | – | – | presence in brain extracts (passing the blood-brain barrier) [6]: found in all samples analyzed
3 | COC(=O)C1=C(C)NC(C)=C(C(=O)OC)C1c1ccccc1[N+](=O)[O-] [nifedipine, 1,4-dihydro-2,6-dimethyl-4-(2-nitrophenyl)-3,5-pyridinedicarboxylic acid dimethyl ester] | – | – | – | slightly inhibited | – | – | – | – | – | – | – | – | slightly inhibited | GPCR-3 expression level [7]: significantly reduced; GPCR-3 expression level [8]: reduced; EAAT2 level [9]: significant increase
4 | COc1ccc([C@@H]2Sc3ccccc3N(CCN(C)C)C(=O)[C@@H]2OC(C)=O)cc1 [Dilitiazem, reference compound] | – | – | – | – | – | – | – | – | – | – | – | – | – | Aβ formation, calcium channel blocker combined with T3/T4 ([2]; 1 μM with T3/T4, 16 hours): significant decrease
5 | C=CC=O [acrolein] | – | – | – | – | – | – | – | – | – | – | – | – | – | expression of the PDS/TTR complex in culture medium [10]: increased; number of PDS/TTR-positive cells, % of untreated control [11]: about 600%
6 | COC(=O)c1c(C)nc(C)c(C(=O)OC)c1-c1ccccc1N=O [nitroso-nifedipine, 2,6-dimethyl-4-(2-nitrosophenyl)-3,5-pyridinedicarboxylic acid dimethyl ester] | – | – | – | significant inhibition; also recorded: significantly inhibits | significant increase | significant decrease | significant increase | significant decrease | significant increase | significant decrease | did not significantly alter | did not significantly alter | significant inhibition | levels of Aβ1-40, % vehicle treated animals [12]: significant decrease; resistance (survival) of H4 cultures compared to nifedipine [13]: more resistant; GPCR-3 level [5]: significant increase; serum alkaline phosphatase level ([14]; 35 mg/kg): significant decrease; serum alkaline phosphatase level ([14]; any dose): did not significantly increase; liver damage ([14]; mice): does not induce liver damage; Ca influx following depolarization [15]: significant increase
